{
  "source": "patent US20100055169A1",
  "about": "“CATIONIC LIPIDS AND USES THEREOF” (ABBOTT LABORATORIES, priority 2008, published 2010)",
  "assay_type_in_all_cases": "physicochemical",
  "key": {"[1]": {"test": "RiboGreen assay of siRNA encapsulation efficiency, in vitro formulations of Lipid-Based Particles", "details": "in vitro formulation b: Cationic lipid/PEG-cholesterol/DSPC/Chol 45/10/15/30 wt %, lipid:siRNA 25:1", "summary_of_the_method": "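siRNA in pH 4.0 citrate buffer (20 mM, 0.2 mg/mL) mixed at 60 °C with an ethanolic lipid blend (cationic lipid, cholesterol, non-cationic lipid, PEG-lipid), then diluted with PBS pH 7.4. Encapsulation efficiency from RiboGreen fluorescence (480/520 nm) with siRNA released by ethanol, Triton X-100 or phenol/chloroform.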"}, "[2]": {"test": "Particle sizing by dynamic light scattering (DynaPro plate reader), in vitro formulations", "details": "in vitro formulation b: Cationic lipid/PEG-cholesterol/DSPC/Chol 45/10/15/30 wt %, lipid:siRNA 25:1", "description": "The siRNA concentrations were measured using Quanti-iT RiboGreen RNA reagent (Molecular Probes, (R11490)). Vesicle sizes were characterized by dynamic light scattering with a DynaPro™ Plate Reader (Wyatt Technology) in 96-well half-area UV plate (Coring) after diluting the formulation sample (20 μL) in phosphate buffered saline (80 μL) at a pH of about 7-8. A 1% agarose gel-based assay was used for analyzing nuclease degradation and protection. Encapsulation efficiency (EE) was calculated using data obtained from a RiboGreen assay.\nParticle sizes and size distributions (PDI) were characterized by using dynamic light scattering (DLS). A DLS plate reader (Dynapro™, Wyatt Technology) was used for the DLS measurement. This DLS plate reader uses an 830 nm laser and the scattering angle is 158°. It also can control temperature from 4° C. to 70° C. A 96-well format was employed for the samples.\nSamples for DLS analysis were prepared by mixing 20 μL of each sample stock solution with 80 μL PBS directly in the 96-well plate (#3697, Corning). Sample mixing was accomplished using a microplate shaker (Orbis, Mikura Ltd.). Plates were read at 20° C. with an acquisition time of 50 seconds for each sample, and data was analyzed with Wyatt Technology's Dynamics V6 software. To rule out potential multiple scattering artifacts, a second plate at 4-fold reduced sample concentrations was independently prepared by mixing 5 μL stock solutions with 95 μL PBS. Under our experimental conditions the results at the two concentrations were very similar, and the final reported result for each sample represents the average of values obtained from the two plates."}, "[3]": {"test": "Particle sizing assay (Zetasizer Nano ZS), in vivo formulations", "details": "lipid:siRNA 25:1", "summary_of_the_method": "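Lipid–siRNA particles formed by ethanol injection into pH 4.0 citrate buffer at 65 °C, diluted in PBS pH 7.4, diafiltered (100K) and sterile-filtered. Size and PDI by dynamic light scattering, 633 nm He–Ne laser, 173° backscatter, 25 °C, water viscosity/refractive index.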"}, "[4]": {"details": "in vivo formulation A: Cationic lipid/Example 73/DSPC/Chol 45/10/15/30 wt %"}, "[5]": {"details": "in vivo formulation B: Cationic lipid/PEG-cholesterol/DSPC/Chol 45/10/15/30 wt %"}, "[6]": {"details": "in vivo formulation C: Cationic lipid/Pal-PEG-Cera/DSPC/Chol 45/10/15/30 wt %"}, "[7]": {"details": "in vivo formulation D: Cationic lipid/Example 66/DSPC/Chol 45/10/15/30 wt %"}, "[8]": {"details": "in vivo formulation E: Cationic lipid/Example 53/DSPC/Chol 45/10/15/30 wt %"}, "[9]": {"details": "in vivo formulation F: Cationic lipid/Example 54/DSPC/Chol 45/10/15/30 wt %"}, "[10]": {"details": "in vivo formulation G: Cationic lipid/Example 55/DSPC/Chol 45/10/15/30 wt %"}, "[11]": {"details": "in vivo formulation H: Cationic lipid/PEG-DMPE/DSPC/Chol 45/10/15/30 wt %"}, "[12]": {"details": "in vivo formulation J: Cationic lipid/PEG-DSPE/DSPC/Chol 45/10/15/30 wt %"}, "[13]": {"details": "in vivo formulation K: Cationic lipid/PEG-DMG/DSPC/Chol 45/10/15/30 wt %"}, "[14]": {"details": "in vivo formulation M: Cationic lipid/PEG-DSG/DSPC/Chol 45/10/15/30 wt %"}, "[15]": {"details": "in vivo formulation NN: Cationic lipid/Example 74/DSPC/Chol 45/10/15/30 wt %"}, "[16]": {"details": "in vivo formulation OO: Cationic lipid/Example 75/DSPC/Chol 45/10/15/30 wt %"}, "[17]": {"details": "in vivo formulation P: Cationic lipid/PEG-DSPE/DOPE/Chol 45/10/15/30 wt %"}, "[18]": {"details": "in vivo formulation PP: Cationic lipid/Example 73/Chol 45/10/45 wt %"}, "[19]": {"details": "in vivo formulation Q: Cationic lipid/PEG-DSPE/DOPC/Chol 45/10/15/30 wt %"}, "[20]": {"details": "in vivo formulation R: Cationic lipid/PEG-DSPE/SPC/Chol 45/10/15/30 wt %"}},
  "data": [
    {"compound": "CCCCC/C=C\\C/C=C\\CCCCCCCCOCC(CCN1CCCC1)OCCCCCCCC/C=C\\C/C=C\\CCCCC", "note": "(stereo not drawn) [Example 24, 1-{3,4-bis[(9Z,12Z)-octadeca-9,12-dienyloxy]butyl}pyrrolidine]", "values": [
      {"measurement": "% Encapsulation Efficiency", "setting": "[1]", "value": 97.0, "unit": "%"},
      {"measurement": "Size", "setting": "[2]", "value": 135.4, "unit": "nm"},
      {"measurement": "Size", "setting": "[3]; [4]", "value": 96, "unit": "nm"},
      {"measurement": "Size distribution (PDI)", "setting": "[3]; [4]", "value": "(0.06)"},
      {"measurement": "Size", "setting": "[3]; [5]", "value": 327, "unit": "nm"},
      {"measurement": "Size distribution (PDI)", "setting": "[3]; [5]", "value": "(0.198)"},
      {"measurement": "Size", "setting": "[3]; [6]", "value": 141, "unit": "nm"},
      {"measurement": "Size distribution (PDI)", "setting": "[3]; [6]", "value": "(0.026)"},
      {"measurement": "Size", "setting": "[3]; [7]", "value": 164, "unit": "nm"},
      {"measurement": "Size distribution (PDI)", "setting": "[3]; [7]", "value": "(0.104)"},
      {"measurement": "Size", "setting": "[3]; [8]", "value": 169, "unit": "nm"},
      {"measurement": "Size distribution (PDI)", "setting": "[3]; [8]", "value": "(0.163)"},
      {"measurement": "Size", "setting": "[3]; [9]", "value": 152, "unit": "nm"},
      {"measurement": "Size distribution (PDI)", "setting": "[3]; [9]", "value": "(0.08)"},
      {"measurement": "Size", "setting": "[3]; [10]", "value": 164, "unit": "nm"},
      {"measurement": "Size distribution (PDI)", "setting": "[3]; [10]", "value": "(0.104)"},
      {"measurement": "Size", "setting": "[3]; [11]", "value": 168, "unit": "nm"},
      {"measurement": "Size distribution (PDI)", "setting": "[3]; [11]", "value": "(0.007)"},
      {"measurement": "Size", "setting": "[3]; [12]", "value": 119.7, "unit": "nm"},
      {"measurement": "Size distribution (PDI)", "setting": "[3]; [12]", "value": "(0.006)"},
      {"measurement": "Size", "setting": "[3]; [13]", "value": 155, "unit": "nm"},
      {"measurement": "Size distribution (PDI)", "setting": "[3]; [13]", "value": "(0.052)"},
      {"measurement": "Size", "setting": "[3]; [14]", "value": 116.5, "unit": "nm"},
      {"measurement": "Size distribution (PDI)", "setting": "[3]; [14]", "value": "(0.029)"},
      {"measurement": "Size", "setting": "[3]; [15]", "value": 140, "unit": "nm"},
      {"measurement": "Size distribution (PDI)", "setting": "[3]; [15]", "value": "(0.029)"},
      {"measurement": "Size", "setting": "[3]; [16]", "value": 142, "unit": "nm"},
      {"measurement": "Size distribution (PDI)", "setting": "[3]; [16]", "value": "(0.029)"},
      {"measurement": "Size", "setting": "[3]; [17]", "value": 153.7, "unit": "nm"},
      {"measurement": "Size distribution (PDI)", "setting": "[3]; [17]", "value": "(0.061)"},
      {"measurement": "Size", "setting": "[3]; [18]", "value": 108.7, "unit": "nm"},
      {"measurement": "Size distribution (PDI)", "setting": "[3]; [18]", "value": "(0.094)"},
      {"measurement": "Size", "setting": "[3]; [19]", "value": 144.1, "unit": "nm"},
      {"measurement": "Size distribution (PDI)", "setting": "[3]; [19]", "value": "(0.01)"},
      {"measurement": "Size", "setting": "[3]; [20]", "value": 159.6, "unit": "nm"},
      {"measurement": "Size distribution (PDI)", "setting": "[3]; [20]", "value": "(0.036)"}
    ]}
  ]
}
